Assay results taken from the supplement of paper PMC10307832.

Experiments:
Experiment in all cases: relative viability (nuclei count vs DMSO), 5 days (fraction); higher = more cells survive
17-AAG + Luminespib = compound: C=CCNC1=C2C[C@@H](C)C[C@H](OC)[C@H](O)[C@@H](C)/C=C(\C)[C@H](OC(N)=O)[C@@H](OC)/C=C\C=C(/C)C(=O)NC(=CC1=O)C2=O [17-AAG] + CCNC(=O)c1noc(-c2cc(C(C)C)c(O)cc2O)c1-c1ccc(CN2CCOCC2)cc1 [Luminespib] (partner 0.01 µM)
Summary of the method: (§1)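 Each reported value is a median over duplicate plates. It expresses relative viability: treated-well nuclei count divided by vehicle-well nuclei count. Lung cancer cell lines in 1536-well plates were dosed by pin tool a day after seeding, alone with one drug or with a fixed anchor-drug dose plus five library-drug doses (not always all listed) in √10 steps, and nuclei were counted after 5 days.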

17-AAG + Foretinib = compound: C=CCNC1=C2C[C@@H](C)C[C@H](OC)[C@H](O)[C@@H](C)/C=C(\C)[C@H](OC(N)=O)[C@@H](OC)/C=C\C=C(/C)C(=O)NC(=CC1=O)C2=O [17-AAG] + COc1cc2c(Oc3ccc(NC(=O)C4(C(=O)Nc5ccc(F)cc5)CC4)cc3F)ccnc2cc1OCCCN1CCOCC1 [Foretinib] (partner 0.25 µM)
Summary of the method: as §1

17-AAG + Tozasertib = compound: C=CCNC1=C2C[C@@H](C)C[C@H](OC)[C@H](O)[C@@H](C)/C=C(\C)[C@H](OC(N)=O)[C@@H](OC)/C=C\C=C(/C)C(=O)NC(=CC1=O)C2=O [17-AAG] + Cc1cc(Nc2cc(N3CCN(C)CC3)nc(Sc3ccc(NC(=O)C4CC4)cc3)n2)n[nH]1 [Tozasertib] (partner 0.1 µM)
Summary of the method: as §1

17-AAG + AZD7762 = compound: C=CCNC1=C2C[C@@H](C)C[C@H](OC)[C@H](O)[C@@H](C)/C=C(\C)[C@H](OC(N)=O)[C@@H](OC)/C=C\C=C(/C)C(=O)NC(=CC1=O)C2=O [17-AAG] + NC(=O)Nc1cc(-c2cccc(F)c2)sc1C(=O)N[C@H]1CCCNC1 [AZD7762] (partner 0.2 µM)
Summary of the method: as §1

Cell Line	relative viability (17-AAG + Luminespib; first compound 0.00128 µM)	relative viability (17-AAG + Luminespib; first compound 0.004048 µM)	relative viability (17-AAG + Luminespib; first compound 0.0128 µM)	relative viability (17-AAG + Luminespib; first compound 0.04048 µM)	relative viability (17-AAG + Luminespib; first compound 0.128 µM)	relative viability (17-AAG + Foretinib; first compound 0.00128 µM)	relative viability (17-AAG + Foretinib; first compound 0.004048 µM)	relative viability (17-AAG + Foretinib; first compound 0.0128 µM)	relative viability (17-AAG + Foretinib; first compound 0.04048 µM)	relative viability (17-AAG + Foretinib; first compound 0.128 µM)	relative viability (17-AAG + Tozasertib; first compound 0.00128 µM)	relative viability (17-AAG + Tozasertib; first compound 0.004048 µM)	relative viability (17-AAG + Tozasertib; first compound 0.0128 µM)	relative viability (17-AAG + Tozasertib; first compound 0.04048 µM)	relative viability (17-AAG + Tozasertib; first compound 0.128 µM)	relative viability (17-AAG + AZD7762; first compound 0.00128 µM)	relative viability (17-AAG + AZD7762; first compound 0.004048 µM)	relative viability (17-AAG + AZD7762; first compound 0.0128 µM)	relative viability (17-AAG + AZD7762; first compound 0.04048 µM)	relative viability (17-AAG + AZD7762; first compound 0.128 µM)
NCI-H2126	0.681	0.499	0.261	0.243	0.292	1.29	1.19	1.05	0.908	0.236	0.9	0.842	0.44	0.26	0.298	0.977	0.975	0.885	0.265	0.231
NCI-H2170	0.696	0.502	0.374	0.137	0.151	0.961	1.01	0.955	0.607	0.328	0.739	0.77	0.65	0.327	0.173	0.832	0.734	0.305	0.126	0.128
NCI-H2342	0.695	0.689	0.602	0.402	0.38	0.97	1.04	0.968	0.846	0.374	0.442	0.437	0.518	0.493	0.306	0.441	0.739	0.468	0.447	0.359
NCI-H2347	0.62	0.278	0.274	0.299	0.374		1.03	0.859	0.35	0.413	0.564	0.518	0.507	0.278	0.303	0.891	0.578	0.472	0.26	0.22
NCI-H2405	0.542	0.335	0.256	0.239	0.184	1.1	1.04	0.93	0.245	0.195	0.776	0.765	0.451	0.28	0.156	0.741	0.525	0.23	0.153	0.143
NCI-H3122	0.099	0.059	0.0637	0.0599	0.096	0.961	0.934	0.138	0.076	0.098	0.473	0.187	0.0915	0.104	0.0922	0.93	0.873	0.214	0.161	0.108
PC-3 [JPC-3]	0.766	0.723	0.71		0.538	0.981	1.04	1.01		0.885	0.894	0.847	0.922		0.839	0.776	0.8	0.888	0.541	0.59
PC-14	0.146	0.111	0.143	0.162	0.128	0.943	0.961	0.82	0.143	0.134	0.55	0.472	0.27	0.067	0.0544	0.288	0.293	0.144	0.0832	0.129
RERF-LC-KJ	1.06	0.595	0.398	0.357	0.325	0.883	0.951	0.974	0.346	0.296	0.551	0.754	0.293	0.275	0.257	1	1.16	0.859	0.229	0.118
SW 900	0.183	0.172	0.19	0.153	0.153	0.868	0.735	0.39	0.119	0.0963	0.684	0.565	0.262	0.133	0.113	0.661	0.68	0.255	0.11	0.133
